Values quoted from earlier work in patent US20070191933A1, “Reduction of restenosis” (priority 2005, published 2007).

Test system: circulating T-cells
Conditions: FIG. 1

For alemtuzumab [Campath], the “time to full recovery of T-cells” value (after a single dose) is given as at least 3 months and the “killing of circulating T-cells” value (single dose) is given as “kill all circulating T-cells”.
